Assay [1] deals with 26S proteasome non-ATPase regulatory subunit 14 (Homo sapiens, UniProt O00487). Put plainly: inhibition of proteasome subunit RPN11 – biochemical, fluorescence polarization, uHTS hits, confirmation (AID 602368). It is filed as functional. A general note: Polarisation of emitted light reports the rotation of a fluorescent probe.
Assay [2] addresses T1, SUMO-activating enzyme (Homo sapiens, UniProt Q9UBT2). As to the kind of experiment: blockers of SAE1/SAE2–UBC9 SUMO transfer – biochemical, HTRF, uHTS, primary screen (AID 2006). The format is protein-complex assay.
For assay [3], the target named is Prothrombin (Bos taurus, UniProt P00735). Put plainly: thrombin protease inhibitors – biochemical, fluorescence polarization, uHTS hits, dose response (AID 602369). It is filed as functional.
For assay [4], the target named is T1, SUMO-activating enzyme. As to the kind of experiment: blockers of UBC9-mediated SUMO conjugation – biochemical, AlphaScreen, SUMOylation inhibitor project, confirmation (AID 2018). It is filed as functional. (In general: Alpha assays give light when donor and acceptor beads are brought close together.)
A short description of assay [5]: HEK-293T cell viability reduction – luminescence, B-cell screen hits, cytotoxicity control for BCR NF-kB inhibitor project, dose response (AID 489021).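 Also: HEK-293T cells carrying an NF-kB luciferase reporter; cells exposed to compound for about 14 hours before viability readout.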 The format is functional, cell-based.
The target of assay [6] is 72 kDa type IV collagenase (Homo sapiens, UniProt P08253). As to the kind of experiment: Dose Response validation of uHTS RPN11 inhibitor hits using a MMP-2 Fluorescence assay. The format is functional.
In assay [7] the target is Protein disulfide-isomerase (Homo sapiens, UniProt P07237). As to the kind of experiment: inhibition of PDI-driven insulin aggregation – biochemical, turbidity, absorbance, cherry-picked samples, dose response (AID 602350). It is filed as functional.
In assay [8] the target is Troponin, cardiac muscle (Homo sapiens, UniProt P19429+P45379+P63316). Put plainly: Fluorescence-based biochemical high throughput dose response assay for activators of the calcium sensitivity of cardiac Regulated Thin Filaments (RTF). [Related pubchem assays (depositor defined):AID493008, AID493018, AID504382, AID504383]. The format is protein-complex assay.
The target in assay [9] is Beta Lactamase (Pseudomonas aeruginosa, UniProt Q932Y6). Put plainly: BLA reporter interference, concentration series – BLA reporter cells, FRET fluorescence, artefact control for TLR9-MyD88 binding inhibitor project, dose response (AID 588341).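 Also: cell based assay in CHO-K1 cells stably expressing beta-lactamase.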 The format is cell-based.
For assay [10], the system named is CHO. As to the kind of experiment: CHO cell viability loss, potency – luminescence, cytotoxicity control for TLR9-MyD88 binding inhibitor project, dose response (AID 588339).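 Also: CHO cells stably coexpressing TLR9 and MyD88 fusions from primary screen; compound exposure lasted 48 hours before viability readout.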 It is filed as functional, cell-based, hamster. As to conditions: Cricetulus griseus.
Assay [11] relates to HeLa. As to the kind of experiment: viability loss in HeLa cells – cell-based, 24 h, cherry-picked samples, cytotoxicity control, dose response (AID 504726). The format is functional. The conditions noted are these: Homo sapiens.

Structures are written as SMILES. Calls of active or inactive are those of the source.

The term IC50 denotes the midpoint of a concentration-inhibition curve. As usually defined, the AC50 is the concentration at which the activity in the assay is half-maximal. By EC50 is commonly meant the concentration giving half of the maximal effect.

T1 sequence (Q9UBE0 whole entry): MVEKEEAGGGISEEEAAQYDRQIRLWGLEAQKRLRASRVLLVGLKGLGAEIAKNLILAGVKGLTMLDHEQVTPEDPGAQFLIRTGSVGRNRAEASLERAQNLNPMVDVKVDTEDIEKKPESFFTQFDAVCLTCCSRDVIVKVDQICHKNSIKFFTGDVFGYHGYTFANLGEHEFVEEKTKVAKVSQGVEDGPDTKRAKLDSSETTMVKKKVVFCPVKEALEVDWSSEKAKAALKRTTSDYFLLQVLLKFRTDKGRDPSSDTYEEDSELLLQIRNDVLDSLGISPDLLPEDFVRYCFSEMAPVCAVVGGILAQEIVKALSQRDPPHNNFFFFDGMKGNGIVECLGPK
T1 sequence (Q9UBT2 whole entry): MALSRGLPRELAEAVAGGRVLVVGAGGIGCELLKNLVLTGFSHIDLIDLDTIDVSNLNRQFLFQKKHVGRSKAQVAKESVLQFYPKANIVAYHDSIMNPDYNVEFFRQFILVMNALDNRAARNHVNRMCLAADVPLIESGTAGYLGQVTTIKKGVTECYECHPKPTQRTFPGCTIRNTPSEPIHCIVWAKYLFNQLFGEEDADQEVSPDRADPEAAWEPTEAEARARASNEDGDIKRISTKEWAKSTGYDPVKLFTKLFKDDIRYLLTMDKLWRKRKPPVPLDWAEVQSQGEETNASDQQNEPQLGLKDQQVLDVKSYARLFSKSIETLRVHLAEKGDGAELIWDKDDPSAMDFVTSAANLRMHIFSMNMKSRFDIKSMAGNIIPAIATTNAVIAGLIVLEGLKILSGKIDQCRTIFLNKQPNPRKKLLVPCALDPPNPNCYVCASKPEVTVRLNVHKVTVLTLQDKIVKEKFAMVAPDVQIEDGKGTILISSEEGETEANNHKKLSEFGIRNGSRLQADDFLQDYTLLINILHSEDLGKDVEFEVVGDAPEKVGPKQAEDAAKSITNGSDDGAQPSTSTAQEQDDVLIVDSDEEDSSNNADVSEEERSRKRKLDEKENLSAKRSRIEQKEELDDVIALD
Chain of 72 kDa type IV collagenase (P08253 whole entry): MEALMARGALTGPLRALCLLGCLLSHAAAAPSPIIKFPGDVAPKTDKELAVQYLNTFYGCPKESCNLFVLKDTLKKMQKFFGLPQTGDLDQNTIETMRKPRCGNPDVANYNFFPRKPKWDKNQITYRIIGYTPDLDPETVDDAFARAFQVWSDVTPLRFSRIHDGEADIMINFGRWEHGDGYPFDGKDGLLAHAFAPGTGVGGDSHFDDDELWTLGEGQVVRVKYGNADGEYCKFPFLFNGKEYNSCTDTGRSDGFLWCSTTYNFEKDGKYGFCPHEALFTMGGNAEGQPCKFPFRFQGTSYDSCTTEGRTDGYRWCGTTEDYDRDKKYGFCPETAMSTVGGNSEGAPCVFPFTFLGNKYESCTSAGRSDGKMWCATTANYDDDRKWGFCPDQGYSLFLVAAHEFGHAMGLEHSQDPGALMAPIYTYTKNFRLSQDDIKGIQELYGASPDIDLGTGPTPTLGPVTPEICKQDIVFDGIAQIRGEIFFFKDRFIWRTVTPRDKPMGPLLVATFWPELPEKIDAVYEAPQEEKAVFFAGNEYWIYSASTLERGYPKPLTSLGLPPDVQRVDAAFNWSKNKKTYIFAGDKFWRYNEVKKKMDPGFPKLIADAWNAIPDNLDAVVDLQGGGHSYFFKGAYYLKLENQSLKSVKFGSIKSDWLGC
Chain of Protein disulfide-isomerase (P07237 whole entry): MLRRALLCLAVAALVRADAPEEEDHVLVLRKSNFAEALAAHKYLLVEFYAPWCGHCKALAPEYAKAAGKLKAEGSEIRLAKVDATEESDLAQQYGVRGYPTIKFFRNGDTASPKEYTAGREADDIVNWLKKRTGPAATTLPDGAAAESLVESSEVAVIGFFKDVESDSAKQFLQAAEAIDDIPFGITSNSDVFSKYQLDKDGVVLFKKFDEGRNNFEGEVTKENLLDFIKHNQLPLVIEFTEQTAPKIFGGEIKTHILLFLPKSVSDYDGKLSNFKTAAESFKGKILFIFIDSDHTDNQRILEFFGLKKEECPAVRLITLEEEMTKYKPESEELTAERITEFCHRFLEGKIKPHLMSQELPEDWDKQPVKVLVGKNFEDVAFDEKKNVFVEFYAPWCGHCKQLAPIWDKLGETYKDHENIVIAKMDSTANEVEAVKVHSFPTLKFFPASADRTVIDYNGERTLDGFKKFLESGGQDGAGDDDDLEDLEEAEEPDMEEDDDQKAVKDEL
Chain of 26S proteasome non-ATPase regulatory subunit 14 (O00487 whole entry): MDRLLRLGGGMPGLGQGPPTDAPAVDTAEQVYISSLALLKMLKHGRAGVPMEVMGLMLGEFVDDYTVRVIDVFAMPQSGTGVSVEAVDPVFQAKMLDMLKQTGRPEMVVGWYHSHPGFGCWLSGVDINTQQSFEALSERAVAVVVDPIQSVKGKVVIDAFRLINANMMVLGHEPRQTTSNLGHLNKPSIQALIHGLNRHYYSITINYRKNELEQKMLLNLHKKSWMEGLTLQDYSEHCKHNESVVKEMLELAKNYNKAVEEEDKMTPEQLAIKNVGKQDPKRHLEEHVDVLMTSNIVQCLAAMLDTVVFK
Chain of Beta Lactamase (Q932Y6 whole entry, the tested form may be a part): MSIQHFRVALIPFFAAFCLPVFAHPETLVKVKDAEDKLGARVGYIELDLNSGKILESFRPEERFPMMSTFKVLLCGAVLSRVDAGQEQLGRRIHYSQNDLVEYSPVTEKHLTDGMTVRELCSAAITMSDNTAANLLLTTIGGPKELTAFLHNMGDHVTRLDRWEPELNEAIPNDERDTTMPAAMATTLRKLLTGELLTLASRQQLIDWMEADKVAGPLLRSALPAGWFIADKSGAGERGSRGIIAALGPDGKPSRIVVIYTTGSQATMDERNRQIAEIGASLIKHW

As for `CCc1ccc(/C=C2/SC(=S)N(CCC(=O)Nc3ccc(C(=O)O)cc3)C2=O)cc1`, the IC50 in [1] is 18.1 µM (active); in assay [2], 14.1 µM (active); in assay [3] it was 51.7 µM (active); in [4] it was 4.15 µM (active); in assay [5] it was > 80 µM (inactive); in assay [6], > 100 µM (inactive).

Consider `NNC(=O)c1cc(-c2ccc(O)cc2)nc2ccc(Br)cc12`, for which the AC50 in assay [7] is 19.5 µM (active).

With `O=C1c2cccc3c(N4CCCCC4)ccc(c23)C(=O)N1c1cccc(O)c1`, the EC50 in assay [8] was 1.83 µM (active). Further, the IC50 is 5.24 µM (active) in assay [9] and > 49.7 µM (inactive) in assay [10]. Further, the half-maximal activity concentration (AC50) in assay [11] is 81.5 µM (active).

The record behind these values is ChEMBL document CHEMBL1201862, “PubChem BioAssay data set” (2004).
